{"source": "patent US6071882A", "about": "“Means for treating prostate hypertrophy and prostate cancer” (ASTA Medica AG, priority 1998, dated 2000)", "key": {"[1]": {"tested_on": "BPH patients", "conditions": "cited from earlier work"}, "[2]": {"tested_on": "BPH patients", "assay": "Clinical therapy of BPH with Cetrorelix", "format": "in vivo", "procedure": "Cetrorelix is administered in a dose of 0.5 mg to 2 mg daily for 4 to 8 weeks for the therapy of BPH. A dose of 5 mg to 30 mg, dispensed once per week or every 10 days also over a time period of 4 to 8 weeks as well as one every two weeks or one injection per month of 20 mg to 60 mg can also decisively improve the clinical symptoms and signs. […] The prostate volume decreases by 20 to 40% during the treatment time of 4 to 8 weeks. […] In addition, at least 30% of the patients achieve an improvement of the urine flow of 6 ml/sec with this therapy. This is almost equivalent to an improvement like that associated with the golden standard operation, and in considerably shorter time. […] These clinical benefits continue for at least 3 to 6 months after therapy. This allows a long-term therapy of BPH with only an intermittent treatment of 2 to max. 4 injection cycles over 4 to 8 weeks."}, "[3]": {"tested_on": "Prostate carcinoma patients", "conditions": "500 μg every 12 hours for 6 weeks; cited from earlier work"}}, "note": "Non-standard residues stand in square brackets, D forms with d. Residues, ends and D or L forms follow the SMILES beside them. dPhe(4-Cl) = N[C@H](Cc1ccc(Cl)cc1)C(=O)O; d2Nal = N[C@H](Cc1ccc2ccccc2c1)C(=O)O; dCit = NC(=O)NCCC[C@@H](N)C(=O)O; d3Pal = N[C@H](Cc1cccnc1)C(=O)O"}
{"smiles": "CC(=O)N[C@H](Cc1ccc2ccccc2c1)C(=O)N[C@H](Cc1ccc(Cl)cc1)C(=O)N[C@H](Cc1cccnc1)C(=O)N[C@@H](CO)C(=O)N[C@@H](Cc1ccc(O)cc1)C(=O)N[C@H](CCCNC(N)=O)C(=O)N[C@@H](CC(C)C)C(=O)N[C@@H](CCCNC(=N)N)C(=O)N1CCC[C@H]1C(=O)N[C@H](C)C(N)=O", "note": "[Cetrorelix] (Ac-[d2Nal][dPhe(4-Cl)][d3Pal]SY[dCit]LRP[dA]-NH2)", "values": [{"measurement": "testosterone levels during treatment", "setting": "[1]; 500 μg every 12 hours for 4 weeks, no castration values during last three weeks", "value": "fluctuated at subnormal levels"}, {"measurement": "testosterone levels, initially", "setting": "[1]; 500 μg every 12 hours, all patients (BPH and prostate carcinoma), initially", "value": "lowering in testosterone levels to a castration level"}, {"measurement": "testosterone decrease", "setting": "[2]; above those levels associated with castration", "value": "Submaximal decreases of testosterone occur"}, {"measurement": "limitations in sexual performance", "setting": "[2]; human, in vivo", "value": "No limitations in sexual performance are observed"}, {"measurement": "quality of life", "setting": "[2]; human, in vivo", "value": "significant improvements"}, {"measurement": "increase of the peak flow of the urine", "setting": "[2]; treatment of 4 to 8 weeks", "value": "approximately 3 ml/sec"}, {"measurement": "patients achieving an improvement of the urine flow of 6 ml/sec", "setting": "[2]; treatment of 4 to 8 weeks", "value": "at least 30%"}, {"measurement": "overall condition of the patient", "setting": "[3]", "value": "considerable improvement"}]}
